Data on 8 compounds can be found in patent US10604514B2, “6-(5-membered heteroaryl)isoquinolin-3-yl carboxamides and preparation and use thereof” (Samumed, LLC, priority 2017, dated 2020).

One assay deals with GSK3β kinase (Homo sapiens (Human), UniProt P49841). Description: GSK3β kinase assay (Ser/Thr 09 peptide Z-lyte, FRET).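 Further: Coumarin/fluorescein emission ratio converted to percent phosphorylation against unphosphorylated (0%) and phosphorylated (100%) controls, 1 h compound incubation at room temperature, 11-point threefold dilutions from 10 µM, run in duplicate.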 The assay is classed as biochemical. The following applies: method text calls the value IC50.
The subject of assay [1] is SW480 colon carcinoma cells. Kind of assay: Cell viability assay (CellTiter-Glo) in SW480 cells.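 On all read-outs here: SW480 cells stably carrying an Sp5-luciferase TCF/LEF reporter, luminescent ATP signal as viability measure, DMSO-treated cells as control.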 The following applies: Homo sapiens; for EC50: 96 h, cell viability, SW480 cells, four days, CellTiter-Glo. The format is cell-based, human. (ATP-based viability assays read luminescence as a measure of living cells.)
The test system of assay [2] is LL29 cells (primary human fibroblasts derived from IPF patients), α-smooth muscle actin. Description: Inhibition of fibrotic process: αSMA in TGF-β1-treated primary human fibroblasts from IPF patients (LL29 cells). The assay is classed as cell-based. The following applies: Homo sapiens, Fibroblast; for EC50: 96 h, % αSMA-positive LL29 cells, TGF-β1 20 ng/mL, 4 days. The text has this: Representative compounds were screened using primary human fibroblasts (derived from IPF patients) treated with TGF-β1 to determine their ability to inhibit the fibrotic process.
Primary human fibroblasts derived from IPF patients (LL29 cells) [^1Xiaoqiu Liu, et. al., “Fibrotic Lung Fibroblasts Show Blunted Inhibition by cAMP Due to Deficient cAMP Response Element-Binding Protein Phosphorylation”, Journal of Pharmacology and Experimental Therapeutics (2005), 315(2), 678-687; ^2Watts, K. L., et. al., “RhoA signaling modulates cyclin D1 expression in human lung fibroblasts; implications for idiopathic pulmonary fibrosis”, Respiratory Research (2006), 7(1), 88] were obtained from American Type Culture Collection (ATCC) and expanded in F12 medium supplemented with 15% Fetal Bovine Serum and 1% Penicillin/Streptomycin.
Each compound was dissolved in DMSO as a 10 mM stock and used to prepare compound source plates. Serial dilution (1:2, 11-point dose-response curves from […] to 0.94 nM) and compound transfer was performed using the ECHO 550 (Labcyte, Sunnyvale, Calif.) into 384-well clear bottom assay plates (Greiner Bio-One) with appropriate DMSO backfill for a final DMSO concentration of 0.1%. LL29 cells were plated at 1,500 cells/well in 70 μL/well F12 medium supplemented with 1% Fetal Bovine Serum. TGF-β1 (Peprotech; 20 ng/mL) was added to the plates to induce fibrosis (ref. 1 and 2 above). Wells treated with TGF-31 and containing DMSO were used as positive control, and cells with only DMSO were negative control. Cells were incubated at 37° C. and 5% CO2 for 4 days. Following incubation for 4 days, SYTOX green nucleic acid stain (Life Technologies [Thermo Fisher Scientific]) was added to the wells at a final concentration of 1 μM and incubated at room temperature for 30 min. Cells were then fixed using 4% formaldehyde (Electron Microscopy Sciences), washed 3 times with PBS followed by blocking and permeabilization using 3% Bovine Serum Albumin (BSA; Sigma) and 0.3% Triton X-100 (Sigma) in PBS. Cells were then stained with antibody specific to α-smooth muscle actin (αSMA; Abcam) (ref. 1 and 2 above) in 3% Bovine Serum Albumin (BSA; Sigma) and 0.3% Triton X-100 (Sigma) in PBS, and incubated overnight at 4° C. Cells were then washed 3 times with PBS, followed by incubation with Alexa Flor-647 conjugated secondary antibody (Life Technologies [Thermo Fisher Scientific]) and DAPI in 3% Bovine Serum Albumin (BSA; Sigma) and 0.3% Triton X-100 (Sigma) in PBS at room temperature for 1 hour. Cells were then washed 3 times with PBS and plates were sealed for imaging. αSMA staining was imaged by excitation at 630 nm and emission at 665 nm and quantified using the Compartmental Analysis program on the CellInsight CX5 (Thermo Scientific). Dead or apoptotic cells were excluded from analysis based on positive SYTOX green staining. % of total cells positive for αSMA were counted in each well and normalized to the average of 11 wells treated with TGF-β1 on the same plate using Dotmatics' Studies Software.

A further assay deals with IL-6. Description: IL-6 inhibition in LPS-stimulated human peripheral blood mononuclear cells (HTRF). The format is cell-based. The following applies: Homo sapiens, PBMC; for EC50: IL-6, LPS-stimulated huPBMCs, HTRF; for inhibition at 10 µM: read-out: percent value in parentheses below EC50 >10. As for the experimental part:
Fresh Normal PB MNC (Catalog # PB001, AllCells, Alameda, Calif.) were shipped overnight at 4° C. and resuspended in Roswell Park Memorial Institute (RPMI) 1640 Medium, with GlutaMAX Supplement (Catalog #61870127, ThermoFisher Scientific, Waltham, Mass.) supplemented with 1% Penicillin-Streptomycin (Catalog #151401633 ThermoFisher Scientific, Waltham, Mass.) and 1% fetal bovine serum (FBS) (Catalog #16140089, ThermoFisher Scientific, Waltham, Mass.) assay media.
Fresh normal human peripheral blood mononuclear cells (huPBMCs) were resuspended in 1% FBS-RPMI assay media with 1% Penicillin-Streptomycin 1% to a cell concentration of 1×10e6 cells/mL. Each compound was dissolved in DMSO (Catalog # D8418-100 ml, Sigma-Aldrich, St. Louis, Mo.) as a 10 mM stock and used to prepare compound source plates. Serial dilution (1:3, 10-point dose-response curves starting from 10 μM) and compound transfer was performed using the ECHO 550 (Labcyte, Sunnyvale, Calif.) into 384-well white Proxiplate-Plus assay plates (Catalog #6008289, PerkinElmer, Shelton, Conn.) with appropriate DMSO backfill for a final DMSO concentration of 0.25%. huPBMCs were plated at 5000 cells/well in the 384-well Proxiplate-Plus assay plates and incubated at 37° C.-5% CO2 for 2 hours. 50 ng/mL of Lipopolysaccharides from Escherichia coli 0111:B4 (Catalog # L5293-2 ML, Sigma-Aldrich, St. Louis, Mo.) was added after 2 hours and cells were incubated for another 22 hours at 37° C.-5% CO2. After 22 hour incubation, a mixture of anti-IL6 XL665 and anti-IL-6 Cryptate diluted in reconstitution buffer (Catalog #62IL6PEC, Cisbio Inc., Bedford, Mass.) was added to each well. Following incubation for 3 hours at room temperature, Homogeneous Time-Resolved Fluorescence (HTRF) was measured using the Envision (Perkin Elmer, Shelton, Conn.) at 665 nm and […]. The ratio of fluorescence at 665 nm to 620 nm was used as a readout for IL-6 quantification. All samples were processed in duplicate. Readings were normalized to DMSO treated cells and normalized activities were utilized for EC50 calculations. EC50 was determined using software generated by Dotmatics Limited (Windhill Bishops Stortford Herts, UK) using the Levenberg-Marquardt 4 parameter fitting procedure with finite different gradients.
(In general: In TR-FRET formats the signal depends on donor and acceptor labels being close together.)

In assay [3] the test system is Tau phosphorylation at Ser396 (pSer396), SH-SY5Y cells. Kind of assay: Tau phosphorylation at Ser396 (pSer396) in SH-SY5Y cells, ELISA/western blot.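 Further: cell lysates probed for reduced Tau pSer396 via ELISA (colorimetric) or western blot (chemiluminescence), both with one shared pSer396 antibody, EC50 for lowering phosphorylation.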 The assay is classed as cell-based, human. The following applies: Homo sapiens; SH-SY5Y cells, overnight (16-18 h); read-out: pSer396 Tau EC50.
Protocol: Two days before treatment, cells were seeded onto 96 well plates at 5×10^4 cells/well.
Wells were visually checked for cell death or change in morphology and supernatants were tested for cytotoxicity by measurement of lactate dehydrogenase release (LDH, CytoToxOne kit, Promega) if necessary.
Cells were lysed with RIPA buffer complemented with phosphatase and protease inhibitors then lysates were spun down at 12,000 g for 10 min to remove any cellular debris. Lysates are then either directly tested for pSer396 by ELISA (Life Technology, Kit KHB7031) or loaded on NuPage Bis-Tris gels for western blot analysis. Colorimetric detection of ELISA signal is performed by Cytation3 plate reader (Biotek) and the chemiluminescence signal for HRP-linked antibodies used in western blotting is detected using a Carestream Image Station. The same pSer396 antibody is used for detection of pTau in both assays.
A further assay concerns the target DYRK1A kinase (Homo sapiens (Human), UniProt Q13627). Kind of assay: DYRK1A kinase assay (Ser/Thr 18 peptide Z-lyte, FRET).
The test system of assay [4] is Wnt activity (Sp5-Luc reporter in SW480 colon carcinoma cells). Kind of assay: Wnt activity screening assay (Sp5-Luc reporter gene assay). The format is cell-based, human. The following applies: Homo sapiens; for EC50: Sp5-Luc reporter, SW480 cells, 36 to 48 hours. The text has this:
The screening assay for Wnt activity is described as follows. Reporter cell lines can be generated by stably transducing cancer cell lines (e.g., colon cancer) or primary cells (e.g., IEC-6 intestinal cells) with a lentiviral construct that includes a Wnt-responsive promoter driving expression of the firefly luciferase gene.
SW480 colon carcinoma cells were transduced with a lentiviral vector expressing luciferase with a human Sp5 promoter consisting of a sequence of eight TCF/LEF binding sites. SW480 cells stably expressing the Sp5-Luc reporter gene and a hygromycin resistance gene were selected by treatment with 150 μg/mL of hygromycin for 7 days. These stably transduced SW480 cells were expanded in cell culture and used for all further screening activities. Each compound was dissolved in DMSO as a 10 mM stock and used to prepare compound source plates. Serial dilution (1:3, 10-point dose-response curves starting from 10 μM) and compound transfer was performed using the ECHO 550 (Labcyte, Sunnyvale, Calif.) into 384-well white solid bottom assay plates (Greiner Bio-One) with appropriate DMSO backfill for a final DMSO concentration of 0.1%. For Sp5-Luc reporter gene assays, the cells were plated at 4,000 cells/well in 384-well plates with a DMEM medium containing 1% fetal bovine serum, and 1% Penicillin-Streptomycin and incubated for 36 to 48 hours at 37° C. and 5% CO2. Following incubation, 15 μl of BriteLite Plus luminescence reagent (Perkin Elmer) was added to each well of the 384-well assay plates. The plates were placed on an orbital shaker for 2 min and then luminescence was quantified using the Envision (Perkin Elmer) plate reader. Readings were normalized to DMSO only treated cells, and normalized activities were utilized for EC50 calculations using the dose-response log (inhibitor) vs. response -variable slope (four parameters) nonlinear regression feature available in GraphPad Prism 5.0 (or Dotmatics).

[5] abbreviates: DYRK1A kinase, method text calls the value IC50.
[6] abbreviates: SW480, read-out: percent inhibition at 10 μM.

Like-named read-outs stand apart in the source and are kept apart here. Where only a bound is given, the exact number is not on record here.

Sequence of GSK3β kinase (P49841 whole entry): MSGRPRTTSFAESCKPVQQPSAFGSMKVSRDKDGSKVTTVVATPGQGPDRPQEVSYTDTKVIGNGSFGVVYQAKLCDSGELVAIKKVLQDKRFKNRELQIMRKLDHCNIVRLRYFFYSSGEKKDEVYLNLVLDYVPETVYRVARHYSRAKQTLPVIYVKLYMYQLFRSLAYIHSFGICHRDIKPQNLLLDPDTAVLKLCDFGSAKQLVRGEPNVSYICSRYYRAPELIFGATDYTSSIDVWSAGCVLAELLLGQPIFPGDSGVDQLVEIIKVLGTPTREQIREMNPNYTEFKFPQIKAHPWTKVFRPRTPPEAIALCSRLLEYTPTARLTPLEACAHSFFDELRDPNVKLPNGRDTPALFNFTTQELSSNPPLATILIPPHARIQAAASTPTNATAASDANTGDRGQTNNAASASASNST

The EC50 is the midpoint of the concentration-response curve. Regarding `CCCCN1CCC(C(=O)Nc2cc3cc(-c4cnn(C)c4)ccc3cn2)CC1` [Compound 169, 1-Butyl-N-(6-(1-methyl-1H-pyrazol-4-yl)isoquinolin-3-yl)piperidine-4-carboxamide], the EC50 on GSK3β kinase came to 47 nM; in assay [1] it was 1130 nM; in assay [2], 148 nM; in the assay on IL-6 it was 1020 nM; in assay [3], 154 nM; on DYRK1A kinase (setting [5]), 3 nM. In assay [4], the EC50 came out at 2540 nM.

As to `Cc1nnc(-c2ccc3cnc(NC(=O)C4(F)CCN(C)CC4)cc3c2)s1` [Compound 26, 4-Fluoro-1-methyl-N-(6-(5-methyl-1,3,4-thiadiazol-2-yl)isoquinolin-3-yl) piperidine-4-carboxamide], the EC50 is 524 nM on GSK3β kinase; 8530 nM in assay [1]; greater than 10000 nM in assay [2]; greater than 10000 nM in the assay with IL-6; 167 nM in assay [3]; 38 nM on DYRK1A kinase (setting [5]). Also, the EC50 in assay [4] came out at 6950 nM. Besides, the inhibition at 10 µM in assay [2] (read-out: percent inhibition at 10 μM) is 48.4%; in the assay with IL-6, 5.6%.

For `[2H]C([2H])([2H])N([C@H]1CC[C@H](C(=O)Nc2cc3cc(-c4cnc(C)o4)ccc3cn2)CC1)C([2H])([2H])[2H]` [Compound 144, trans-4-(Bis(methyl-d3)amino)-N-(6-(2-methyloxazol-5-yl)isoquinolin-3-yl) cyclohexane-1-carboxamide], the EC50 at GSK3β kinase was 21 nM; in assay [1], 3770 nM; in assay [2], 1380 nM; in the assay on IL-6, greater than 10000 nM; in assay [3] it was greater than 10000 nM; on DYRK1A kinase, 20 nM. Further, in assay [4], the EC50 is greater than 10000 nM. The inhibition at 10 µM turned out to be 14.3% with IL-6 and 35.8% in assay [4] (setting [6]).

As for `Cc1ncc(-c2ccc3cnc(NC(=O)C4CCN(C)CC4)cc3c2)o1` [Compound 47, 1-Methyl-N-(6-(2-methyloxazol-5-yl)isoquinolin-3-yl)piperidine-4-carboxamide], the concentration for a half-maximal effect (EC50) at GSK3β kinase turned out to be 65 nM; in assay [1] it was 751 nM; in assay [2] it was 262 nM; with IL-6, 945 nM; in assay [3], 174 nM; on DYRK1A kinase (setting [5]), 6 nM. The concentration for a half-maximal effect (EC50) in assay [4] is 917 nM.

On to `Cc1nnc(-c2ccc3cnc(NC(=O)N4CC[C@H](NC(C)C)[C@@H](F)C4)cc3c2)s1` [Compound 35, (3S,4S)-3-Fluoro-4-(isopropylamino)-N-(6-(5-methyl-1,3,4-thiadiazol-2-yl)isoquinolin-3-yl)piperidine-1-carboxamide], for which the concentration for a half-maximal effect (EC50) at GSK3β kinase is 84 nM; in assay [1], 4550 nM; in assay [2], 1020 nM; in the assay with IL-6 it was greater than 10000 nM; in assay [3], 543 nM; on DYRK1A kinase (setting [5]), 26 nM. In assay [4], this compound displayed an EC50 of 3340 nM. For the same compound, in the assay with IL-6, the inhibition at 10 µM came to 9.6%.

As to `[2H]c1c([2H])c([2H])c(C(=O)Nc2cc3cc(-c4cncn4C)ccc3cn2)c(F)c1[2H]` [Compound 80], the 50% effective concentration (EC50) was 2580 nM on GSK3β kinase; 1600 nM in assay [1]; 2710 nM in assay [2]; 7640 nM in the assay with IL-6; greater than 10000 nM in assay [3]; 3 nM on DYRK1A kinase. The same compound yielded an EC50 in assay [4] of 743 nM.

On to `Cc1nnc(-c2ccc3cnc(NC(=O)C4CCN(CC(C)(F)F)CC4)cc3c2)s1` [Compound 28, 1-(2,2-Difluoropropyl)-N-(6-(5-methyl-1,3,4-thiadiazol-2-yl)isoquinolin-3-yl)piperidine-4-carboxamide], for which the EC50 at GSK3β kinase was 8 nM; in assay [1], greater than 10000 nM; in assay [2], 448 nM; with IL-6 it was greater than 10000 nM; in assay [3], 89 nM; at DYRK1A kinase (setting [5]), 4 nM. Also, a half-maximal response in assay [4] (EC50) required 1110 nM. Further, the figures for the inhibition at 10 µM (in assay [1] (setting [6]); in the assay on IL-6) were 37.8% and 4.3%, respectively.

On to `COC1CCN(CC(=O)Nc2cc3cc(-c4cnc(C)o4)ccc3cn2)CC1` [Compound 48, 2-(4-Methoxypiperidin-1-yl)-N-(6-(2-methyloxazol-5-yl)isoquinolin-3-yl) acetamide], for which the EC50 turned out to be 54 nM at GSK3β kinase; 3890 nM in assay [1]; 718 nM in assay [2]; 9070 nM in the assay with IL-6; 359 nM in assay [3]; 20 nM at DYRK1A kinase (setting [5]). The compound also gave an EC50 in assay [4] of 820 nM.
